The nature of this series: activity coefficient (dimensionless); of the first substance listed, at infinite dilution; xn = mol fraction of the nth substance listed. To be noted: 101.33 kPa, Liquid, Chromatography, x1 = 0.

Structures are written as SMILES. Numbers after ± are expanded uncertainties.

The values that follow come from the NIST ThermoML archive (doi:10.1021/acs.jced.8b00601).

Take `ClCCCl` [1,2-dichloroethane] + O=S(=O)([N-]S(=O)(=O)C(F)(F)F)C(F)(F)F.O=S(=O)([N-]S(=O)(=O)C(F)(F)F)C(F)(F)F.O=S(=O)([N-]S(=O)(=O)C(F)(F)F)C(F)(F)F.c1ccc2cc(-n3cc[n+](Cc4cc(C[n+]5ccn(-c6ccc7ccccc7c6)c5)cc(C[n+]5ccn(-c6ccc7ccccc7c6)c5)c4)c3)ccc2c1: the activity coefficient (313 K) was found to be 0.758 ± 0.079, the activity coefficient (323 K) worked out at 0.738 ± 0.077, the activity coefficient (333 K) worked out at 0.677 ± 0.071 and the activity coefficient (343 K) was found to be 0.679 ± 0.071.

Take `CCCC=O` [butanal] + O=S(=O)([N-]S(=O)(=O)C(F)(F)F)C(F)(F)F.O=S(=O)([N-]S(=O)(=O)C(F)(F)F)C(F)(F)F.O=S(=O)([N-]S(=O)(=O)C(F)(F)F)C(F)(F)F.c1ccc2cc(-n3cc[n+](Cc4cc(C[n+]5ccn(-c6ccc7ccccc7c6)c5)cc(C[n+]5ccn(-c6ccc7ccccc7c6)c5)c4)c3)ccc2c1: the activity coefficient runs as follows: (313 K) 0.425 ± 0.049; (323 K) 0.415 ± 0.048; (333 K) 0.396 ± 0.047; (343 K) 0.324 ± 0.043.

For the compound `CCCCCCC` [heptane] + O=S(=O)([N-]S(=O)(=O)C(F)(F)F)C(F)(F)F.O=S(=O)([N-]S(=O)(=O)C(F)(F)F)C(F)(F)F.O=S(=O)([N-]S(=O)(=O)C(F)(F)F)C(F)(F)F.c1ccc2cc(-n3cc[n+](Cc4cc(C[n+]5ccn(-c6ccc7ccccc7c6)c5)cc(C[n+]5ccn(-c6ccc7ccccc7c6)c5)c4)c3)ccc2c1, the activity coefficient reads like this: (313 K) 12.2 ± 1.3; (323 K) 10.1 ± 1.2; (333 K) 6.77 ± 0.82; (343 K) 6.03 ± 0.65.

Consider `CCOC(C)=O` [ethyl acetate] + O=S(=O)([N-]S(=O)(=O)C(F)(F)F)C(F)(F)F.O=S(=O)([N-]S(=O)(=O)C(F)(F)F)C(F)(F)F.O=S(=O)([N-]S(=O)(=O)C(F)(F)F)C(F)(F)F.c1ccc2cc(-n3cc[n+](Cc4cc(C[n+]5ccn(-c6ccc7ccccc7c6)c5)cc(C[n+]5ccn(-c6ccc7ccccc7c6)c5)c4)c3)ccc2c1, for which the activity coefficient (313 K) stood at 1.02 ± 0.11, the activity coefficient (323 K) is 0.776 ± 0.093, the activity coefficient (333 K) came to 0.544 ± 0.068 and the activity coefficient (343 K) was 0.443 ± 0.054.
